Results: EP4108244A1, “SS-LACTAM ANTIBIOTIC WITH SIGNIFICANT ACTIVITY AGAINST CANCER E.G. COLON MALIGNANCIES” (priority 2021, dated 2022)
Marks after values point to notes of the source that are not given here.

Columns and labels:
Caco-2 cells = experiment: MTT metabolic activity assay; type: cell-based, human; details: Homo sapiens, 24 h post-treatment, 5-Fluorouracil 4µM, read-out: inhibition of proliferation (metabolic activity)
Description: (§1) Cells were plated at 2^∗104cells/ml in 96-well plates and incubated overnight. The following day, cells were treated in triplicate with Ceftazdime or 5-fluorouracil for 24-48 h, depending on the cell line used. Metabolic activity of the cells was studied using the MTT assay that measures the ability of metabolically active cells to convert tetrazolium salt into a blue formazan product, the absorbance of which is recorded at 540 nm by an ELISA reader (Bio-Rad iMark Microplate Reader).

RAW 264.7 cells = experiment: MTT metabolic activity assay on macrophages; type: cell-based, murine; details: RAW 264.7
Description: as §1

HCT-116 cells [1] = experiment: Cell cycle distribution, propidium iodide staining; type: cell-based, human; details: for percentage of cells in G0/G1 / percentage of cells in G2/M / percentage of cells in Pre G1 / percentage of cells in S: CFT 100 µg/mL, CFP 50 µg/mL, 5-FU 8 µM, alone or combined, mean ± SE
Description: Propidium iodide (PI) staining was used to evaluate the effect of the different treatments on the cell cycle. […] Fixed cells, which were washed with PBS and incubated at 37 °C for 1 h with 50 µl RNase (1 mg/ml) (Sigma Aldrich, Germany), were stained for 15 minutes with PI (Molecular Probes, Eugene, Oregon, USA).

DLD-1 cells [2] = experiment: Cell cycle distribution, propidium iodide staining; type: cell-based, human; details: CFT 100 µg/mL, CFP 50 µg/mL, 5-FU 16 µM, alone or combined, mean ± SE
Description: Propidium iodide (PI) staining was used to evaluate the effect of the different treatments on the cell cycle. […] 48 h and 72 h post-treatment, collected cells were fixed with ice-cold ethanol (70%) and stored at - 20 °C for at least 2 h. Fixed cells, which were washed with PBS and incubated at 37 °C for 1 h with 50 µl RNase (1 mg/ml) (Sigma Aldrich, Germany), were stained for 15 minutes with PI (Molecular Probes, Eugene, Oregon, USA). Cell cycle was monitored using BD FACSDiva™ and the percentage of cells in the different phases of the cell cycle (pre-Gi, G0/G1, S, and G2/M) phases was determined using BD FACSDiva™ Software.
Propidium iodide (PI) staining was used to evaluate the effect of the different treatments (Ceftazidime (100 µg/ml) or 5-Fluorouracil (16 µM)) on the cell cycle profile of DLD-1 cells. Briefly, DLD-1 cells were plated at 5^∗104/ml and treated for 48 h and 72 h. Collected cells were fixed with ice-cold ethanol (70%) and stored at -20°C for at least 2 h. Fixed cells, which were washed with PBS and incubated at 37°C for 1 h with 50 µl RNase (1 mg/ml) (Sigma Aldrich, Germany), were stained for 15 minutes with PI (Molecular Probes, Eugene, Oregon, USA). Cell cycle was monitored using BD FACSDiva™ and the percentage of cells in the different phases of the cell cycle (pre-Gi, G0/G1, S, and G2/M) phases was determined using BD FACSDiva™ Software.

DLD-1 cells [3] = experiment: Caspase-3/7 activity assay; type: cell-based, human; details: 48 h and 72 h, 5-FU 16 µM, CFT 100 µg/ml
Description: (§2) Caspase-3/7 activity was measured 48 h and 72 h post-treatment according to the manufacturer's protocol (Caspase-Glo-3/7 Assay, Promega Corp, Madison, WI, USA). Briefly, equal volume from treated cells and caspase-3/7 mixture were incubated at room temperature for 3 h and the luminescence was measured by a microplate reader.
as §2, with “DLD-1 cells were treated with CFT (100 µg/ml) or 5-Fluorouracil (16 µM). Caspase-3/7” for “Caspase-3/7”, “caspase 3/7” for “caspase-3/7”

DLD-1 cells [4] = experiment: MTT metabolic activity assay; type: cell-based, human; details: 48 h post-treatment, 5-Fluorouracil 16µM
Description: MTT assay was used to assess the proliferation rate of HCT-116 and DLD-1 cells. In this assay the ability of metabolically active cells to convert tetrazolium salt into a blue formazan product is measured. The absorption of the dissolved formazan was quantified at 540 nm by an ELISA reader (Bio-Rad iMark Microplate Reader).
as §1, with “The following day, cells were treated in triplicate with Ceftazdime or 5-fluorouracil for 24-48 h, depending on the cell line used.” left out

HCT-116 cells [5] = experiment: MTT metabolic activity assay; type: cell-based, human; details: 5-FU 16 µM and 24 µM, MER, AMP, PIP 10, 50, 100 µg/mL, BenP, FLU 5, 25, 50 µg/mL

O=c1[nH]cc(F)c(=O)[nH]1 [5-FU, 5-fluorouracil]
inhibition at 4 µM (Caco-2 cells): 22%
decrease of metabolic activity (RAW 264.7 cells; 24 h of treatment): 80%
metabolic activity of macrophages (in words) (RAW 264.7 cells; 48 h post-treatment): sustained up to 48 h
increase in the percentage of cells in the pre-G1 phase vs. control (HCT-116 cells [1]; 48 h): 3 fold
percentage of cells in G0/G1 (HCT-116 cells [1]; 48 h): 48.4 ± 2.3^(a) %
percentage of cells in G2/M (HCT-116 cells [1]; 48 h): 22.3 ± 2.9%
percentage of cells in Pre G1 (HCT-116 cells [1]; 48 h): 16.9 ± 2.5^(a) %
percentage of cells in S (HCT-116 cells [1]; 48 h): 10.6 ± 1.0%
increase in the percentage of cells in the pre-G1 phase vs. control (HCT-116 cells [1]; 72 h): 8.2 fold
percentage of cells in G0/G1 (HCT-116 cells [1]; 72 h): 39.0 ± 9.5^(a) %
percentage of cells in G2/M (HCT-116 cells [1]; 72 h): 16.4 ± 2.4^(a) %
percentage of cells in Pre G1 (HCT-116 cells [1]; 72 h): 36.7 ± 11.7^(a) %
percentage of cells in S (HCT-116 cells [1]; 72 h): 6.6 ± 0.7%
percentage of cells in G0/G1 (DLD-1 cells [2]; 48 h): 49.3 ± 4.4%
percentage of cells in G2/M (DLD-1 cells [2]; 48 h): 10.3 ± 1.7^(a) %
percentage of cells in Pre G1 (DLD-1 cells [2]; 48 h): 6.3 ± 2.3%
percentage of cells in S (DLD-1 cells [2]; 48 h): 32.0 ± 6.1^(a) %
percentage of cells in G0/G1 (DLD-1 cells [2]; 72 h): 69.4 ± 5.0%
percentage of cells in G2/M (DLD-1 cells [2]; 72 h): 5.4 ± 2.7^(a) %
percentage of cells in Pre G1 (DLD-1 cells [2]; 72 h): 4.7 ± 0.3%
percentage of cells in S (DLD-1 cells [2]; 72 h): 20.1 ± 2.9^(a) %
caspase 3/7 activity / apoptosis induction (in words) (DLD-1 cells [3]): did not induce caspase 3/7 activity
inhibitory effect vs. control untreated cells (metabolic activity) (DLD-1 cells [4]): 18%

CC1(C)S[C@@H]2[C@H](NC(=O)[C@H](N)c3ccccc3)C(=O)N2[C@H]1C(=O)O [AMP, ampicillin]
effect of combination with 5-FU on the inhibition of metabolic activity induced by 5-FU (in words) (HCT-116 cells [5]): does not affect the inhibition

CC1(C)S[C@@H]2[C@H](NC(=O)Cc3ccccc3)C(=O)N2[C@H]1C(=O)O [BenP, benzylpenicillin]
effect of combination with 5-FU on the inhibition of metabolic activity induced by 5-FU (in words) (HCT-116 cells [5]): does not affect the inhibition
